Test results reported in patent publication US10472349B2, “Salt of pyridinyl amino pyrimidine derivative, preparation method therefor, and application thereof” (SHANGHAI ALLIST PHARMACEUTICALS, INC., priority 2016, dated 2019).
Counter-ions that a name gives are not always drawn. Each block holds one compound with its values, some of them ahead of it.

Legend:
[1] = Drug absorption experiment in SD rats, intragastric administration; type: in vivo, SD rats (Sprague Dawley rats); conditions: for half-life: read-out: T1/2 (elimination half-life) (converted)
Procedure: The determination method for the absolute bioavailability of the intragastric administration of the mesylate salts of the compound of formula (I) is as follows: • For intravenous administration: Healthy SD rats are randomly grouped. The tested compound is administered in a certain dosage D through the intravenous administration. The blood samples are collected through the retrobulbar venous plexus before the administration and 5 min, 15 min, 0.5 h, 1.0 h, 2.0 h, 4.0 h, 8.0 h, 12 h and 24 h after the administration, and separated to give plasmas. […] The tested substance is administered in a certain dosage D through the intragastric administration.
After dosage calibration, the absolute bioavailability F is calculated by the area under the drug concentration-time curve (AUC0-t). The calculation equation is as follows: F=(AUCintragastric×Dintravenous)/(AUCintravenous[…])×100%.
For intragastric administration: 16 healthy (half male and half female) SD rats with 200-280 g body weight, provided by Shanghai Sippr-BK laboratory animal Co. Ltd., were assigned randomly to 4 groups.
After dosage calibration, the absolute bioavailability F was obtained by calculation of AUC0-t. The calculation equation was as follows: F=(AUCintragastric×Dintravenous)/(AUCintravenous×Dintragastric)×100%. The obtained absolute bioavailability F data are shown in the above table 2.

[2] = Drug absorption experiment in SD rats, intravenous administration; type: in vivo, SD rats (Sprague Dawley rats); conditions: plasma
Procedure: The determination method for the absolute bioavailability of the intragastric administration of the mesylate salts of the compound of formula (I) is as follows: • For intravenous administration: Healthy SD rats are randomly grouped. The tested compound is administered in a certain dosage D through the intravenous administration. The blood samples are collected through the retrobulbar venous plexus before the administration and 5 min, 15 min, 0.5 h, 1.0 h, 2.0 h, 4.0 h, 8.0 h, 12 h and 24 h after the administration, and separated to give plasmas. The concentration of the drug in plasma is determined with the liquid chromatography-tandem mass spectrometry method to give a drug concentration-time curve. • For intragastric administration: Healthy SD rats are randomly grouped. The tested substance is administered in a certain dosage D through the intragastric administration. The intravenous blood samples are collected through the rat's retrobulbar venous plexus before the administration and 0.5, 1.0, 2.0, 4.0, 6.0, 8.0, 10, 12 and 24 h after the administration, and separated to give plasmas. The concentration of the drug in plasma is determined with the liquid chromatography-tandem mass spectrometry method to give a drug concentration-time curve.
For intravenous administration: 16 healthy (half male and half female) SD rats with 200-280 g body weight, provided by Shanghai Sippr-BK laboratory animal Co. Ltd., were assigned randomly to 4 groups. […] 0.2 ml of the intravenous blood samples were collected through the rat's retrobulbar venous plexus before the administration and 5 min, 15 min, 0.5 h, 1.0 h, 2.0 h, 4.0 h, 8.0 h, 12 h and 24 h after the administration, and separated to give plasmas. The concentration of the drug in plasma was determined with the liquid chromatography-tandem mass spectrometry method to give a drug concentration-time curve.
T1/2: elimination half-life; Cmax: maximum drug concentration in plasma; AUC0-t: area under drug concentration-time curve.

[3] = test system: subcutaneously transplanted tumors of human lung cancer H1975; assay: Inhibition effect on the growth of subcutaneously transplanted tumors of human lung cancer H1975-bearing nude mice; type: in vivo; conditions: 25 mg/kg intragastric, once per day for 21 days
Description: The pharmacodynamics of the mesylate salts of the compound of formula (I) in terms of inhibiting the growth of transplanted tumors in animal may be assayed by conventional methods. One preferable evaluation method aims to the inhibitory effect on the growth of subcutaneously transplanted tumors of human lung cancer H1975-bearing nude mice. The experimental method may be as follows: human lung cancer H1975 cell strain (5×10^6/each mouse) is inoculated to nude mice subcutaneously at the right side of the back thereof. After the tumors grow to 100-150 mm^3 on average, the animals are divided into groups randomly according to the tumor size and the animal weight. […] During the entire experimental process, the animal weight and the tumor size are measured twice per week, so as to observe whether or not the toxic reaction occurs.
The tumor volume is calculated as follows: Tumor volume (mm^3)=0.5×Tumor major diameter×Tumor minor diameter×Tumor minor diameter. […]
Cell cultivation: H1975 was placed in a RPMI-1640 medium containing 10% FBS, and cultivated in a temperature-constant incubator containing 5% CO2 at 37° C. The cells in exponential growth phase were collected and counted for inoculation. […]
The tumor volume was calculated as follows: Tumor volume (mm^3)=0.5×Tumor major diameter×Tumor minor diameter×Tumor minor diameter.

[4] = both sexes, Sprague-Dawley, rat, plasma, po, intragastric, dosage 10 (Example 1), 10 (Example 2), 6 (Comparative Example 1), 10 (Comparative Example 2) mg/kg, plasma, read-out: AUC0-t
[5] = both sexes, Sprague-Dawley, rat, plasma, po, intragastric, dosage 10 (Example 1), 10 (Example 2), 6 (Comparative Example 1), 10 (Comparative Example 2) mg/kg, plasma, read-out: Cmax
[6] = both sexes, Sprague-Dawley, rat, plasma, po, intragastric, dosage 10 (Example 1), 10 (Example 2), 6 (Comparative Example 1), 10 (Comparative Example 2) mg/kg, plasma
[7] = SD rats, intravenous, dosage 2.5 (Example 1), 4.0 (Example 2), 3.0 (Comparative Example 1), 4.0 (Comparative Example 2) mg/kg
[8] = intragastric, dosage 10 (Example 1), 10 (Example 2), 6 (Comparative Example 1), 10 (Comparative Example 2) mg/kg, plasma

AUC(0-t) [1, 4]: 77.7 ng·h/mL
Cmax [1, 5]: 12.6 ng/mL
half-life [1, 6]: 8.6 h
Structure (SMILES): C=CC(=O)Nc1cc(Nc2nccc(-c3cn(C)c4ccccc34)n2)c(OC(C)C)nc1N(C)CCN(C)C [Comparative Example 1, reference compound]

AUC(0-t) [1, 4]: 172 ng·h/mL
Cmax [1, 5]: 28.3 ng/mL
half-life [1, 6]: 5.76 h
Structure (SMILES): C=CC(=O)Nc1cc(Nc2ncc(Cl)c(-c3cn(C)c4ccccc34)n2)c(OC(C)C)nc1N(C)CCN(C)C [Comparative Example 2, reference compound]

Structure (SMILES): C=CC(=O)Nc1cc(Nc2nccc(-c3cn(C)c4ccccc34)n2)c(OCC(F)(F)F)nc1N(C)CCN(C)C [Example 1, N-{2-{[2-(dimethylamino)ethyl](methyl)amino}-6-(2,2,2-trifluoroethoxy)-5-{[4-(1-methyl-1H-indol-3-yl)pyrimidin-2-yl]amino}pyridin-3-yl}acrylamide]
AUC(0-t) [2, 7]: 307.3 ng·h/mL
Cmax [2, 7]: 81.3 ng/mL
T1/2 (elimination half-life) [2, 7]: 3.96 h
AUC(0-t) [1, 4]: 232 ng·h/mL
F (absolute bioavailability) ([1]; intragastric vs intravenous, calculated from AUC0-t after dosage calibration): 18.85%
Cmax [1, 8]: 17.6 ng/mL

Structure (SMILES): C=CC(=O)Nc1cc(Nc2nccc(-c3cn(C)c4ccccc34)n2)c(OCC(F)(F)F)nc1N(C)CCN(C)C [Example 2, mesylate salt of N-{2-{[2-(dimethylamino)ethyl](methyl)amino}-6-(2,2,2-trifluoroethoxy)-5-{[4-(1-methyl-1H-indol-3-yl)pyrimidin-2-yl]amino}pyridin-3-yl}acrylamide]
AUC(0-t) ([2]; both sexes, Sprague-Dawley, rat, iv, read-out: AUC0-t): 406 ng·h/mL
Cmax ([2]; both sexes, Sprague-Dawley, rat, iv, read-out: Cmax): 430 ng/mL
half-life ([2]; both sexes, Sprague-Dawley, rat, iv, read-out: T1/2 (elimination half-life) (converted)): 3.13 h
Inhibition effect on the growth of subcutaneously transplanted tumors [3]: good inhibition effect
Safety (body weight, toxic reaction) [3]: good safety
bioavailability ([1]; both sexes, Sprague-Dawley, rat, plasma, oral, intragastric vs intravenous, calculated from AUC0-t after dosage calibration, read-out: F (absolute bioavailability)): 28.3%
AUC(0-t) [1, 8]: 287 ng·h/mL
Cmax [1, 8]: 44.54 ng/mL
T1/2 (elimination half-life) [1, 8]: 8.33 h
